Laboratory results published in PubChem BioAssay (NCI).
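Compound exposure: 48 hours, 5 concentrations, 96-well plates. Here, GI50 denotes the concentration required for 50% inhibition of growth. TGI: concentration producing complete growth inhibition.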

Columns and labels:
Assay in all cases: inhibition of tumour cell growth, NCI panel, 48 h
HCT-15 colon = system: HCT-15 colon
HL-60(TB) leukemia = system: HL-60(TB) leukemia
SR leukemia = system: SR leukemia
UO-31 renal = system: UO-31 renal
HCT-116 colon = system: HCT-116 colon
OVCAR-3 ovarian = system: OVCAR-3 ovarian
NCI/ADR-RES ovarian = system: NCI/ADR-RES ovarian
RPMI-8226 leukemia = system: RPMI-8226 leukemia
KM12 colon = system: KM12 colon
MCF7 breast = system: MCF7 breast
SNB-75 CNS = system: SNB-75 CNS
UACC-257 melanoma = system: UACC-257 melanoma
T-47D breast = system: T-47D breast
EKVX NSCLC = system: EKVX NSCLC
MOLT-4 leukemia = system: MOLT-4 leukemia
SW-620 colon = system: SW-620 colon
HOP-92 NSCLC = system: HOP-92 NSCLC
DU-145 prostate = system: DU-145 prostate
ACHN renal = system: ACHN renal
NCI-H226 lung = system: NCI-H226 lung
HOP-62 NSCLC = system: HOP-62 NSCLC
COLO 205 colon = system: COLO 205 colon
NCI-H522 lung = system: NCI-H522 lung
SK-OV-3 ovarian = system: SK-OV-3 ovarian
OVCAR-4 ovarian = system: OVCAR-4 ovarian
PC-3 prostate = system: PC-3 prostate
CAKI-1 renal = system: CAKI-1 renal
IGROV1 ovarian = system: IGROV1 ovarian
A549 NSCLC = system: A549 NSCLC
MDA-MB-231 breast = system: MDA-MB-231 breast
OVCAR-5 ovarian = system: OVCAR-5 ovarian
HT29 colon = system: HT29 colon
LOX IMVI melanoma = system: LOX IMVI melanoma
HS 578T breast = system: HS 578T breast
SK-MEL-2 melanoma = system: SK-MEL-2 melanoma
SF-268 CNS = system: SF-268 CNS
SF-295 CNS = system: SF-295 CNS
A498 renal = system: A498 renal
M14 melanoma = system: M14 melanoma
HCC-2998 colon = system: HCC-2998 colon
NCI-H460 lung = system: NCI-H460 lung
SK-MEL-28 melanoma = system: SK-MEL-28 melanoma
CCRF-CEM leukemia = system: CCRF-CEM leukemia
NCI-H23 lung = system: NCI-H23 lung
SNB-19 CNS = system: SNB-19 CNS
BT-549 breast = system: BT-549 breast
SN12C renal = system: SN12C renal
UACC-62 melanoma = system: UACC-62 melanoma
SK-MEL-5 melanoma = system: SK-MEL-5 melanoma
U251 CNS = system: U251 CNS
786-0 renal = system: 786-0 renal
TK-10 renal = system: TK-10 renal
OVCAR-8 ovarian = system: OVCAR-8 ovarian
SF-539 CNS = system: SF-539 CNS
RXF 393 renal = system: RXF 393 renal
MALME-3M melanoma = system: MALME-3M melanoma

In the case of COc1ccc2c(=O)c(-c3cc4c(cc3OC)OCO4)coc2c1, the TGI (HCT-15 colon) is reported as > 100000 nM, the TGI (HL-60(TB) leukemia) is reported as > 100000 nM and the TGI (SR leukemia) is reported as > 100000 nM. For the same compound, the TGI (UO-31 renal) was > 100000 nM, the TGI (HCT-116 colon) was > 100000 nM and the TGI (OVCAR-3 ovarian) was > 100000 nM. For the same compound, the TGI (NCI/ADR-RES ovarian) was > 100000 nM, the TGI (RPMI-8226 leukemia) was > 100000 nM and the TGI (KM12 colon) was > 100000 nM. For the same compound, the TGI (MCF7 breast) was > 100000 nM, the TGI (SNB-75 CNS) was > 100000 nM and the TGI (UACC-257 melanoma) was > 100000 nM. The TGI (T-47D breast) was > 100000 nM, the TGI (EKVX NSCLC) was > 100000 nM and the TGI (MOLT-4 leukemia) was > 100000 nM. For the same compound, the TGI (SW-620 colon) was > 100000 nM, the TGI (HOP-92 NSCLC) was > 100000 nM and the TGI (DU-145 prostate) was > 100000 nM. For the same compound, the TGI (ACHN renal) was > 100000 nM, the TGI (NCI-H226 lung) was > 100000 nM and the TGI (HOP-62 NSCLC) was > 100000 nM. The TGI (COLO 205 colon) was > 100000 nM, the TGI (NCI-H522 lung) was > 100000 nM and the TGI (SK-OV-3 ovarian) was > 100000 nM. The TGI (OVCAR-4 ovarian) was > 100000 nM, the TGI (PC-3 prostate) was > 100000 nM and the TGI (CAKI-1 renal) was > 100000 nM. The TGI (IGROV1 ovarian) was > 100000 nM, the TGI (A549 NSCLC) was > 100000 nM and the TGI (MDA-MB-231 breast) was > 100000 nM. The TGI (OVCAR-5 ovarian) was > 100000 nM, the TGI (HT29 colon) was > 100000 nM and the TGI (LOX IMVI melanoma) was > 100000 nM. The TGI (HS 578T breast) was > 100000 nM, the TGI (SK-MEL-2 melanoma) was > 100000 nM and the TGI (SF-268 CNS) was > 100000 nM. For the same compound, the TGI (SF-295 CNS) was > 100000 nM, the TGI (A498 renal) was > 100000 nM and the TGI (M14 melanoma) was > 100000 nM. For the same compound, the TGI (HCC-2998 colon) was > 100000 nM, the TGI (NCI-H460 lung) was > 100000 nM and the TGI (SK-MEL-28 melanoma) was > 100000 nM. For the same compound, the TGI (CCRF-CEM leukemia) was > 100000 nM, the TGI (NCI-H23 lung) was > 100000 nM and the TGI (SNB-19 CNS) was > 100000 nM. The TGI (BT-549 breast) was > 100000 nM, the TGI (SN12C renal) was > 100000 nM and the TGI (UACC-62 melanoma) was > 100000 nM. The TGI (SK-MEL-5 melanoma) was > 100000 nM, the TGI (U251 CNS) was > 100000 nM and the TGI (786-0 renal) was > 100000 nM. The TGI (TK-10 renal) was > 100000 nM, the TGI (OVCAR-8 ovarian) was > 100000 nM and the TGI (SF-539 CNS) was > 100000 nM.
In the case of COc1cc(-c2nn(-c3ccc(NC(=O)NCCCNC(=O)c4ccccc4)cc3)cc2-c2ccncc2)ccc1Cl, the GI50 (HCT-15 colon) is reported as 1940 nM, the TGI (HCT-15 colon) is reported as > 100000 nM and the GI50 (HL-60(TB) leukemia) is reported as 358 nM. For the same compound, the TGI (HL-60(TB) leukemia) was 1200 nM, the GI50 (UO-31 renal) was 1560 nM and the TGI (UO-31 renal) was 11300 nM. For the same compound, the GI50 (HCT-116 colon) was 361 nM, the TGI (HCT-116 colon) was 5510 nM and the GI50 (OVCAR-3 ovarian) was 252 nM. The TGI (OVCAR-3 ovarian) was 647 nM, the GI50 (NCI/ADR-RES ovarian) was 3780 nM and the TGI (NCI/ADR-RES ovarian) was > 100000 nM. For the same compound, the GI50 (KM12 colon) was 390 nM, the TGI (KM12 colon) was 2000 nM and the GI50 (MCF7 breast) was 338 nM. For the same compound, the TGI (MCF7 breast) was > 100000 nM, the GI50 (SNB-75 CNS) was 1120 nM and the TGI (SNB-75 CNS) was > 100000 nM. The GI50 (RXF 393 renal) was 293 nM, the TGI (RXF 393 renal) was 917 nM and the GI50 (UACC-257 melanoma) was 2370 nM. For the same compound, the TGI (UACC-257 melanoma) was 23700 nM, the GI50 (T-47D breast) was 611 nM and the TGI (T-47D breast) was 14000 nM. The GI50 (EKVX NSCLC) was 1290 nM, the TGI (EKVX NSCLC) was > 100000 nM and the GI50 (MOLT-4 leukemia) was 905 nM. For the same compound, the TGI (MOLT-4 leukemia) was > 100000 nM, the GI50 (SW-620 colon) was 455 nM and the TGI (SW-620 colon) was > 100000 nM. It also gave a GI50 (HOP-92 NSCLC) of 1260 nM, a TGI (HOP-92 NSCLC) of 8100 nM and a GI50 (DU-145 prostate) of 385 nM. For the same compound, the TGI (DU-145 prostate) was > 100000 nM, the GI50 (ACHN renal) was 1640 nM and the TGI (ACHN renal) was 5300 nM. The GI50 (NCI-H226 lung) was 1470 nM, the TGI (NCI-H226 lung) was > 100000 nM and the GI50 (HOP-62 NSCLC) was 460 nM. The TGI (HOP-62 NSCLC) was > 100000 nM, the GI50 (NCI-H522 lung) was 231 nM and the TGI (NCI-H522 lung) was 3100 nM. The GI50 (SK-OV-3 ovarian) was 752 nM, the TGI (SK-OV-3 ovarian) was > 100000 nM and the GI50 (OVCAR-4 ovarian) was 1000 nM. For the same compound, the TGI (OVCAR-4 ovarian) was > 100000 nM, the GI50 (PC-3 prostate) was 436 nM and the TGI (PC-3 prostate) was > 100000 nM. For the same compound, the GI50 (IGROV1 ovarian) was 843 nM, the TGI (IGROV1 ovarian) was > 100000 nM and the GI50 (A549 NSCLC) was 3230 nM. For the same compound, the TGI (A549 NSCLC) was 77600 nM, the GI50 (MDA-MB-231 breast) was 1140 nM and the TGI (MDA-MB-231 breast) was > 100000 nM. The GI50 (OVCAR-5 ovarian) was 1100 nM, the TGI (OVCAR-5 ovarian) was > 100000 nM and the GI50 (HT29 colon) was 378 nM. For the same compound, the TGI (HT29 colon) was 2160 nM, the GI50 (LOX IMVI melanoma) was 597 nM and the TGI (LOX IMVI melanoma) was 8070 nM. For the same compound, the GI50 (HS 578T breast) was 428 nM, the TGI (HS 578T breast) was > 100000 nM and the GI50 (SK-MEL-2 melanoma) was 637 nM. For the same compound, the TGI (SK-MEL-2 melanoma) was 5220 nM, the GI50 (A498 renal) was 467 nM and the TGI (A498 renal) was 5150 nM. The GI50 (M14 melanoma) was 311 nM, the TGI (M14 melanoma) was 1840 nM and the GI50 (MALME-3M melanoma) was 457 nM. It also gave a TGI (MALME-3M melanoma) of 2880 nM, a GI50 (HCC-2998 colon) of 1210 nM and a TGI (HCC-2998 colon) of 8810 nM. It also gave a GI50 (NCI-H460 lung) of 404 nM, a TGI (NCI-H460 lung) of 9590 nM and a GI50 (SK-MEL-28 melanoma) of 1340 nM. The TGI (SK-MEL-28 melanoma) was > 100000 nM, the GI50 (CCRF-CEM leukemia) was 385 nM and the TGI (CCRF-CEM leukemia) was > 100000 nM. For the same compound, the GI50 (NCI-H23 lung) was 665 nM, the TGI (NCI-H23 lung) was > 100000 nM and the GI50 (SNB-19 CNS) was 846 nM. For the same compound, the TGI (SNB-19 CNS) was > 100000 nM, the GI50 (BT-549 breast) was 887 nM and the TGI (BT-549 breast) was 5330 nM. For the same compound, the GI50 (SN12C renal) was 718 nM, the TGI (SN12C renal) was > 100000 nM and the GI50 (UACC-62 melanoma) was 543 nM. It also gave a TGI (UACC-62 melanoma) of 3480 nM, a GI50 (SK-MEL-5 melanoma) of 362 nM and a TGI (SK-MEL-5 melanoma) of 1430 nM. The GI50 (U251 CNS) was 561 nM, the TGI (U251 CNS) was 21900 nM and the GI50 (786-0 renal) was 493 nM. For the same compound, the TGI (786-0 renal) was 2860 nM, the GI50 (TK-10 renal) was 2300 nM and the TGI (TK-10 renal) was 8010 nM. For the same compound, the GI50 (OVCAR-8 ovarian) was 635 nM, the TGI (OVCAR-8 ovarian) was 12700 nM and the GI50 (SF-539 CNS) was 266 nM. It also gave a TGI (SF-539 CNS) of 843 nM.
